Data as given in ChEMBL document CHEMBL3785004, “New antimalarial norterpene cyclic peroxides from Xisha Islands sponge Diacarnus megaspinorhabdosa” (Bioorg Med Chem Lett, 2016).

Assays:
Plasmodium falciparum [1] = assay: Antimalarial activity against chloroquine resistant Plasmodium falciparum W2 after 72 hrs by LDH assay; format: functional, organism-based; settings: W2, 72 h
[2] = Selectivity index, ratio of IC50 for Vero cells to IC50 for chloroquine sensitive Plasmodium falciparum D6; format: toxicity, cell-based; settings: monkey, read-out: Ratio IC50
[3] = Selectivity index, ratio of IC50 for Vero cells to IC50 for chloroquine resistant Plasmodium falciparum W2; format: toxicity, cell-based; settings: monkey, read-out: Ratio IC50
Plasmodium falciparum [4] = assay: Antimalarial activity against chloroquine sensitive Plasmodium falciparum D6 after 72 hrs by LDH assay; format: functional, organism-based; settings: D6, 72 h

Compound | IC50 (Plasmodium falciparum [1]) | selectivity ratio [2] | selectivity ratio [3] | IC50 (Plasmodium falciparum [4])
CC1=C(CC[C@]2(C)CC[C@H]([C@@H](C)C(=O)O)OO2)C(C)(C)CCC1 | 5.5 µM | 1.7 | 2.6 | 8.1 µM
C[C@@H]1CC[C@H]2[C@@H](C)C(=O)O[C@@H]3O[C@@]4(C)CC[C@@H]1[C@]32OO4 [ARTEMISININ] | 0.14 µM |  |  | 
CC1=C(CC/C(C)=C/CC[C@@]2(C)CC[C@H]([C@H](C)C(=O)O)OO2)C(C)(C)CCC1 | 5.6 µM | 1.4 | 2.2 | 8.6 µM
COC(=O)[C@H](C)[C@H]1CC[C@@](C)(CCC2=C(C)C(=O)CCC2(C)C)OO1 [DIACARPEROXIDE A] | 1.9 µM | 6.5 | 6.8 | 2 µM
COC(=O)[C@@H](C)[C@H]1CC[C@](C)(CC/C=C(\C)CCC2(C)C(C)CCCC2(C)O)OO1 (some centres undefined) | 3 µM | 1.7 | 3.7 | 6.6 µM
COC(=O)[C@@H](C)[C@H]1CC[C@](C)(CC/C=C(\C)CCC2(O)C(C)CCCC2(C)C)OO1 (some centres undefined) | 4.2 µM | 2 | 2.6 | 5.6 µM
C=C1CCCC(C)(C)C1(O)CC/C(C)=C/CC[C@@]1(C)CC[C@H]([C@H](C)C(=O)O)OO1 (some centres undefined) | 4.9 µM | 1.6 | 2.4 | 7.3 µM
C=C1CCCC(C)(C)C1(O)CC/C(C)=C/CC[C@@]1(C)CC[C@H]([C@H](C)C(=O)OC)OO1 (some centres undefined) | 1.6 µM | 5.1 | 7 | 2.2 µM
